The values that follow are results of earlier work, collected in US20130171237A1, “ARIPIPRAZOLE COMPOSITIONS AND METHODS FOR ITS TRANSDERMAL DELIVERY” (priority 2010, published 2013).

Regarding `O=C1CCc2ccc(OCCCCN3CCN(c4cccc(Cl)c4Cl)CC3)cc2N1` [ARPZ, Aripiprazole], the solubility in water result was “practically insoluble in water”.
